Reference: patent US8987195B2 (priority 2012, dated 2015)
Like-named read-outs stand apart in the source and are kept apart here.

Legend:
HCV genotype 1b replicon = experiment: HCV replicon assay, genotype 1b replicon EC50; assay type: cell-based, Hepatitis C virus; conditions: Hepatitis C virus, read-out: EC50 [gt-1b]
How it was run: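 Compound dilution series incubated 24-48 h, G418 absent, with HCV genotype 1b replicon cell lines kept under G418 selection beforehand. Luciferase signal or replicon RNA, by ^32P hybridization/protection or TaqMan normalized to cyclophilin A, was measured after washing and lysis. Four-parameter fitting against DMSO control gave EC50.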

[1] = target: HCV NS3/4A protease genotype 1b (Hepatitis C virus genotype 1b, UniProt P26663); experiment: HCV NS3/4A protease time-resolved fluorescence (TRF) assay, Ki against genotype 1b; assay type: biochemical
How it was run: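 Ki was converted from fitted IC50 using IC50=Ki(1+[S]/KM) and 25 nM substrate. Protease (genotype 1b 0.2 nM, A156T 0.4 nM, 3a 0.025 nM) and compound were pre-mixed 30 min in pH 7.5 HEPES/NaCl/glycerol/DTT buffer. Cleavage then proceeded 2.5 h at room temperature, detected by time-resolved europium fluorescence (340/615 nm).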

[2] = HCV replicon, genotype 1b, K+ salt
[3] = IC50 [gt-1b], NS3/4A protease TRF assay, genotype 1b enzyme 0.2 nM, K+ salt
[4] = IC50 [gt-1b] (nM), NS3/4A genotype 1b, enzyme 0.2 nM
[5] = IC50 [gt-1b], NS3/4A protease TRF assay, genotype 1b enzyme 0.2 nM

With `COc1ccc2nc(C)c3c(c2c1)[C@H](F)C[C@]1(C[C@H]2C(=O)N[C@]4(C(=O)NS(=O)(=O)C5(C)CC5)C[C@H]4/C=C\CCCCC[C@H](NC(=O)OCC(C)(C)C)C(=O)N2C1)O3` [Example 371, 2,2-dimethylpropyl [(1′R,2S,6S,12Z,13aS,14aR,16aS)-1′-fluoro-9′-methoxy-5′-methyl-14a-{[(1-methylcyclopropyl)sulfonyl]carbamoyl}-5,16-dioxo-1,1′,2′,5,6,7,8,9,10,11,13a,14,14a,15,16,16a-hexadecahydrospiro[cyclopropa[e]pyrrolo[1,2-a][1,4]diazacyclopentadecine-2,3′-pyrano[2,3-c]quinolin]-6-yl]carbamate] the EC50 (HCV genotype 1b replicon; [2]) was 1270 pM and the IC50 [1, 3] was 0.015 nM.
`COc1ccc2nc(C)c3c(c2c1)C(F)(F)C[C@]1(C[C@H]2C(=O)N[C@]4(C(=O)NS(=O)(=O)C5(C)CC5)C[C@H]4/C=C\CCCCC[C@H](NC(=O)OC(C)(C)C)C(=O)N2C1)O3` [Example 20, tert-Butyl (2S,6S,13aS,14aR,16aS,Z)-1′,1′-difluoro-9′-methoxy-5′-methyl-14a-(1-methylcyclopropylsulfonylcarbamoyl)-5,16-dioxo-1′,2′,3,5,6,7,8,9,10,11,13a,14,14a,15, 16,16a-hexadecahydro-1H-spiro[cyclopropa[e]pyrrolo[1,2-a][1,4]diazacyclopentadecine-2,3′-pyrano[2,3-c]quinoline]-6-ylcarbamate] was tested, and the EC50 (HCV genotype 1b replicon; genotype 1b replicon, K+ salt) was 1780 pM and the IC50 ([1]; IC50 [gt-1b] (nM), NS3/4A genotype 1b, enzyme 0.2 nM, K+ salt) was 0.009 nM.
`Cc1nc2ccccc2c2c1O[C@]1(CC2)C[C@H]2C(=O)N[C@]3(C(=O)CS(=O)(=O)C4(C)CC4)C[C@H]3/C=C\CCCCC[C@H](NCCC3CCCC3)C(=O)N2C1` [Example 161] gave an EC50 (HCV genotype 1b replicon; GETYPE1B|GT1B, genotype 1b replicon) of 3020 pM and an IC50 [1, 4] of 0.138 nM.
For `COc1ccc2c3c(c(C4CC4)nc2c1)O[C@]1(CC3)C[C@H]2C(=O)N[C@]3(C(=O)NS(=O)(=O)C4(C)CC4)C[C@H]3/C=C\CCCCC[C@H](NC(=O)Oc3ccc(C)cc3)C(=O)N2C1` [Example 274, 4-methylphenyl [(2R,6S,12Z,13aS,14aR,16aS)-5′-cyclopropyl-8′-methoxy-14a-{[(1-methylcyclopropyl)sulfonyl]carbamoyl}-5,16-dioxo-1,1′,2′,5,6,7,8,9,10,11,13a,14,14a,15,16,16a-hexadecahydrospiro[cyclopropa[e]pyrrolo[1,2-a][1,4]diazacyclopentadecine-2,3′-pyrano[2,3-c]quinolin]-6-yl]carbamate], the EC50 (HCV genotype 1b replicon; genotype 1b replicon, HCOOH salt) was 28300 pM and the IC50 ([1]; IC50 [gt-1b] (nM), NS3/4A genotype 1b, enzyme 0.2 nM, HCOOH salt) was 0.832 nM.
`CC(C)(C)COC(=O)N[C@H]1CCCCC/C=C\[C@@H]2C[C@@]2(C(=O)NS(=O)(=O)C2(C)CC2)NC(=O)[C@@H]2C[C@]3(CCc4c(c(C(F)(F)F)nc5ccc(Cl)cc45)O3)CN2C1=O` [Example 386, 2,2-dimethylpropyl [(2R,6S,12Z,13aS,14aR,16aS)-9′-chloro-14a-{[(1-methylcyclopropyl)sulfonyl]carbamoyl}-5,16-dioxo-5′-(trifluoromethyl)-1,1′,2′,5,6,7,8,9,10,11,13a,14,14a,15,16,16a-hexadecahydrospiro[cyclopropa[e]pyrrolo[1,2-a][1,4]diazacyclopentadecine-2,3′-pyrano[2,3-c]quinolin]-6-yl]carbamate] gave an EC50 (HCV genotype 1b replicon; HCV replicon, genotype 1b) of 49600 pM and an IC50 [1, 5] of 0.029 nM.
`COc1ccc2nc(C)c3c(c2n1)[C@H](F)C[C@]1(C[C@H]2C(=O)N[C@]4(C(=O)NS(=O)(=O)C5(C)CC5)C[C@H]4/C=C\CCCCC[C@H](NC(=O)OCC(C)(C)C)C(=O)N2C1)O3` [Example 377, 2,2-dimethylpropyl [(2S,6S,10′R,12Z,13aS,14aR,16aS)-10′-fluoro-2′-methoxy-6′-methyl-14a-{[(1-methylcyclopropyl)sulfonyl]carbamoyl}-5,16-dioxo-1,5,6,7,8,9,9′,10,10′,11,13a,14,14a,15,16,16a-hexadecahydrospiro[cyclopropa[e]pyrrolo[1,2-a][1,4]diazacyclopentadecine-2,8′-pyrano[2,3-c][1,5]naphthyridin]-6-yl]carbamate] showed an EC50 (HCV genotype 1b replicon; HCV replicon, genotype 1b) of 2520 pM and an IC50 [1, 5] of 0.018 nM.
For `COC(=O)N[C@H]1CCCCC/C=C\[C@@H]2C[C@@]2(C(=O)NS(=O)(=O)C2(C)CC2)NC(=O)[C@@H]2C[C@]3(CCc4c(c(C5CC5)nc5ccc(OC)cc45)O3)CN2C1=O` [Example 435, methyl [(2R,6S,12Z,13aS,14aR,16aS)-5′-cyclopropyl-9′-methoxy-14a-{[(1-methylcyclopropyl)sulfonyl]carbamoyl}-5,16-dioxo-1,1′,2′,5,6,7,8,9,10,11,13a,14,14a,15,16,16a-hexadecahydrospiro[cyclopropa[e]pyrrolo[1,2-a][1,4]diazacyclopentadecine-2,3′-pyrano[2,3-c]quinolin]-6-yl]carbamate], the EC50 (HCV genotype 1b replicon; [2]) was 3080 pM and the IC50 [1, 3] was 0.069 nM.
In the case of `COc1ccc2nc(C(F)(F)F)c3c(c2c1)[C@H](N1CCOCC1)C[C@]1(C[C@H]2C(=O)N[C@]4(C(=O)NS(=O)(=O)C5(C)CC5)C[C@H]4/C=C\CCCCC[C@H](NC(=O)OC(C)(C)C)C(=O)N2C1)O3` [Example 66, tert-Butyl((1′R,2R,6S,13aS,14aR,16aS,Z)-9′-methoxy-14a-(((1-methylcyclopropyl)sulfonyl)carbamoyl)-1′-morpholino-5,16-dioxo-5′-(trifluoromethyl) -1′,2′,3,5,6,7,8,9,10,11,13a,14,14a,15,16,16a-hexadecahydro-1H-spiro[cyclopropa[e]pyrrolo[1,2-α][1,4]diazacyclopentadecine-2,3′-pyrano[2,3-c]quinolin]-6-yl)carbamate], the EC50 (HCV genotype 1b replicon; genotype 1b replicon) is reported as 148 pM and the IC50 [1, 4] is reported as 0.011 nM.
`CCc1nc2ccc(OCCCOC)cc2c2c1O[C@]1(CC2)C[C@H]2C(=O)N[C@]3(C(=O)NS(=O)(=O)C4(C)CC4)C[C@H]3/C=C\CCCCC[C@H](NC(=O)OC(C)(C)C)C(=O)N2C1` [Example 479, tert-butyl [(2R,6S,12Z,13aS,14aR,16aS)-5′-ethyl-9′-(3-methoxypropoxy)-14a-{[(1-methylcyclopropyl)sulfonyl]carbamoyl}-5,16-dioxo-1,1′,2′,5,6,7,8,9,10,11,13a,14,14a,15,16,16a-hexadecahydrospiro[cyclopropa[e]pyrrolo[1,2-a][1,4]diazacyclopentadecine-2,3′-pyrano[2,3-c]quinolin]-6-yl]carbamate] gave an EC50 (HCV genotype 1b replicon; HCV replicon, genotype 1b) of 1050 pM and an IC50 [1, 5] of 0.005 nM.
Compound `COCCOc1ccc2nc(C)c3c(c2c1)CC[C@]1(C[C@H]2C(=O)N[C@]4(C(=O)NS(=O)(=O)C5(C)CC5)C[C@H]4/C=C\CCCCC[C@H](NC(=O)OCC(C)(C)C)C(=O)N2C1)O3` [Example 410, 2,2-dimethylpropyl [(2R,6S,12Z,13aS,14aR,16aS)-9′-(2-methoxyethoxy)-5′-methyl-14a-{[(1-methylcyclopropyl)sulfonyl]carbamoyl}-5,16-dioxo-1,1′,2′,5,6,7,8,9,10,11,13a,14,14a,15,16,16a-hexadecahydrospiro[cyclopropa[e]pyrrolo[1,2-a][1,4]diazacyclopentadecine-2,3′-pyrano[2,3-c]quinolin]-6-yl]carbamate] has an EC50 (HCV genotype 1b replicon; HCV replicon, genotype 1b) of 3100 pM and an IC50 [1, 5] of 0.011 nM.
For `COc1ccc2nc(C(F)(F)F)c3c(c2c1)CC[C@]1(C[C@H]2C(=O)N[C@]4(C(=O)NS(=O)(=O)C5(C)CC5)C[C@H]4/C=C\CCCCC[C@H](NC(=O)OC4CCCC4)C(=O)N2C1)O3` [Example 217, cyclopentyl [(2R,6S,12Z,13aS,14aR,16aS)-9′-methoxy-14a-{[(1-methylcyclopropyl)sulfonyl]carbamoyl}-5,16-dioxo-5′-(trifluoromethyl)-1,1′,2′,5,6,7,8,9,10,11,13a,14,14a,15,16,16a-hexadecahydrospiro[cyclopropa[e]pyrrolo[1,2-a][1,4]diazacyclopentadecine-2,3′-pyrano[2,3-c]quinolin]-6-yl]carbamate], the EC50 (HCV genotype 1b replicon; genotype 1b replicon) was 10400 pM and the IC50 [1, 4] was 0.024 nM.
